Test results as given in patent US12624023B2, “Sulfonylurea derivatives and uses thereof” (NodThera Limited, priority 2019, dated 2026).

What was measured:
[1] = test system: IL-1β release upon NLRP3 activation in human whole blood; test: Whole blood (WB) assay (IL-1β release, LPS priming + ATP stimulation, HTRF); format: cell-based; conditions: heparin, diluted 9:5 with media, LPS 1 μg/ml 3 h, compound 30 min, ATP 5 mM 1 h, IL-1β by HTRF
Procedure: The compounds of the present disclosure were tested for their inhibitory activity against IL-1β release upon NLRP3 activation in human whole blood.
Whole blood was drawn from single healthy donors and treated with sodium heparin anticoagulant. Blood was diluted with cell culture media at a 9:5 ratio, seeded in a 96-well plate and incubated for 3 h with lipopolysaccharide (LPS, 1 μg/ml final concentration diluted 1000× from a 1 mg/ml stock solution). The compounds of the present disclosure were added (a single compound concentration per well) and the blood was incubated for 30 min. Next, the blood was stimulated with ATP (5 mM final concentration diluted 20× from a 100 mM stock solution) for 1 h and the cell culture media from the wells were collected for further analysis.
The release of IL-1β into the media was determined by quantitative detection of IL-1β in the media using HTRF®, CisBio cat. No. 62HIL1BPEH. Briefly, cell culture supernatant were diluted as appropriate to bring IL-1β levels within the HTRF® detection range ([…]) and subsequently dispensed into the assay plate containing antibodies labelled with the HTRF® donor and acceptor. A microplate spectrophotometer (BMG) was used to detect signals at 655 nm and 620 nm.

[2] = test system: IL-1β release upon NLRP3 activation in peripheral blood mononuclear cells (PBMC); test: PBMC IC50 determination assay (IL-1β release, LPS priming + ATP stimulation, HTRF); format: cell-based; conditions: PBMC from buffy coats; LPS 1 μg/ml 3 h, compound 30 min, ATP 5 mM 1 h; IL-1β by HTRF
Procedure: The compounds of the present disclosure were tested for their inhibitory activity against IL-1β release upon NLRP3 activation in peripheral blood mononuclear cells (PBMC).
PBMC were isolated from buffy coats by density gradient centrifugation on Histopaque-1077 (Sigma, cat no. 10771). Isolated cells were seeded into the wells (280,000 cells/well) of a 96-well plate and incubated for 3 h with lipopolysaccharide (LPS, 1 μg/ml diluted 1000× from a 1 mg/ml stock solution). The compounds of the present disclosure were added (a single compound per well) and the cells were incubated for 30 min. Next, the cells were stimulated with ATP (5 mM final concentration diluted 20× from a 100 mM stock solution) for 1 h and the cell culture media from the wells were collected for further analysis.
The release of IL-1β into the media was determined by quantitative detection of IL-1β in the media using HTRF®, CisBio cat. No. 62HIL1BPEH. Briefly, cell culture supernatant were dispensed directly into the assay plate containing antibodies labelled with the HTRF® donor and acceptor. A microplate spectrophotometer (BMG) was used to detect signals at 655 nm and 620 nm. The detection range of IL-1β HTRF® was […].

SMILES | IC50 [1] | IC50 [2]
CC(C)c1sc(C2CC2)cc1NC(=O)NS(=O)(=O)N(c1cnn(C)c1)C1CCCN(C)C1 (centres unmarked) [Compound 37, 3-[5-Cyclopropyl-2-(propan-2-yl)thiophen-3-yl]-1-[(1-methyl-1H-pyrazol-4-yl)(1-methylpiperidin-3-yl)sulfamoyl]urea] | 1000 to 3000 nM | < 100 nM
CC(C)c1cc(NC(=O)NS(=O)(=O)N(c2cnn(C)c2)C2CCCN(C)C2)c(C2CC2)s1 (centres unmarked) [Compound 38, 3-[2-Cyclopropyl-5-(propan-2-yl)thiophen-3-yl]-1-[(1-methyl-1H-pyrazol-4-yl)(1-methylpiperidin-3-yl)sulfamoyl]urea] | 1000 to 3000 nM | < 100 nM
CC(C)c1cc(NC(=O)NS(=O)(=O)N(c2cnn(C)c2)C2CCN(C)CC2)c(C(C)C)s1 [Compound 43, 3-[2,5-Bis(propan-2-yl)thiophen-3-yl]-1-[(1-methyl-1H-pyrazol-4-yl)(1-methyl-piperidin-4-yl)sulfamoyl]urea] | < 1000 nM | < 100 nM
CC(C)c1cc(NC(=O)NS(=O)(=O)N(c2cnn(C)c2)C2CCCN(C)C2)c(Cl)s1 (centres unmarked) [Compound 50, 3-[2-Chloro-5-(propan-2-yl)thiophen-3-yl]-1-[(1-methyl-1H-pyrazol-4-yl)(1-methylpiperidin-3-yl)sulfamoyl]urea] | 1000 to 3000 nM | 500 to 1000 nM
CC(C)c1cc(C(C)C)c(NC(=O)NS(=O)(=O)N(c2cnn(C)c2)C2CCCN(C)C2)s1 (centres unmarked) [Compound 52, 3-[3,5-Bis(propan-2-yl)thiophen-2-yl]-1-[(1-methyl-1H-pyrazol-4-yl)(1-methyl-piperidin-3-yl)sulfamoyl]urea] | 1000 to 3000 nM | < 100 nM
CC(C)c1cc(NC(=O)NS(=O)(=O)N(C[C@@H]2C[C@@H](F)CN2C)c2cnn(C)c2)c(C(C)C)s1 [Compound 53] | 1000 to 3000 nM | < 100 nM
CC(C)c1cc(NC(=O)NS(=O)(=O)N(c2cnn(C)c2)[C@@H]2CCCN(C)C2)c(C(C)C)s1 [Compound 54, 3-[2,5-Bis(propan-2-yl)thiophen-3-yl]-1-[(1-methyl-1H-pyrazol-4-yl)[(3R)-1-methylpiperidin-3-yl]sulfamoyl]urea] | < 1000 nM | < 100 nM
CC(C)c1cc(NC(=O)NS(=O)(=O)N(c2cnn(C(C)C)c2)[C@@H]2CCCN(C)C2)c(C(C)C)s1 [Compound 55, 3-[2,5-Bis(propan-2-yl)thiophen-3-yl]-1-{[(3R)-1-methylpiperidin-3-yl][1-(propan-2-yl)-1H-pyrazol-4-yl]sulfamoyl}urea] | < 1000 nM | < 100 nM
CC(C)c1cc(NC(=O)NS(=O)(=O)N(c2cnn(C)c2)[C@H]2CCCN(C)C2)c(C(C)C)s1 [Compound 56, 3-[2,5-Bis(propan-2-yl)thiophen-3-yl]-1-[(1-methyl-1H-pyrazol-4-yl)[(3S)-1-methylpiperidin-3-yl]sulfamoyl]urea] | < 1000 nM | < 100 nM
Cc1sc(C(C)C)cc1NC(=O)NS(=O)(=O)N(c1cnn(C)c1)[C@@H]1CCCN(C)C1 [Compound 57, 1-[(1-Methyl-1H-pyrazol-4-yl)[(3R)-1-methylpiperidin-3-yl]sulfamoyl]-3-[2-methyl-5-(propan-2-yl)thiophen-3-yl]urea] | 1000 to 3000 nM | 100 to 500 nM
CCc1sc(C(C)C)cc1NC(=O)NS(=O)(=O)N(c1cnn(C)c1)[C@@H]1CCCN(C)C1 [Compound 58, 3-[2-Ethyl-5-(propan-2-yl)thiophen-3-yl]-1-[(1-methyl-1H-pyrazol-4-yl)[(3R)-1-methylpiperidin-3-yl]sulfamoyl]urea] | < 1000 nM | < 100 nM
CC(C)c1cc(NC(=O)NS(=O)(=O)N(c2cnn(C3CC3)c2)[C@@H]2CCCN(C)C2)c(C(C)C)s1 [Compound 59, 3-[2,5-Bis(propan-2-yl)thiophen-3-yl]-1-[(1-cyclopropyl-1H-pyrazol-4-yl)-[(3R)-1-methylpiperidin-3-yl]sulfamoyl]urea] | 1000 to 3000 nM | < 100 nM
CC(C)c1sc(Cl)cc1NC(=O)NS(=O)(=O)N(c1cnn(C)c1)[C@@H]1CCCN(C)C1 [Compound 60, 3-[5-Chloro-2-(propan-2-yl)thiophen-3-yl]-1-[(1-methyl-1H-pyrazol-4-yl)-[(3R)-1-methylpiperidin-3-yl]sulfamoyl]urea] | < 1000 nM | < 100 nM
CCc1cc(NC(=O)NS(=O)(=O)N(c2cnn(C)c2)[C@@H]2CCCN(C)C2)c(C(C)C)s1 [Compound 61, 3-[5-Ethyl-2-(propan-2-yl)thiophen-3-yl]-1-[(1-methyl-1H-pyrazol-4-yl)[(3R)-1-methylpiperidin-3-yl]sulfamoyl]urea] | 3000 to 10000 nM | < 100 nM
CCc1cc(NC(=O)NS(=O)(=O)N(C[C@@H]2C[C@@H](F)CN2C)c2cnn(C)c2)c(CC)o1 [Compound 62, 1-(2,5-Diethylfuran-3-yl)-3-({[(2S,4R)-4-fluoro-1-methylpyrrolidin-2-yl]methyl}(1-methyl-1H-pyrazol-4-yl)sulfamoyl)urea] | 1000 to 3000 nM | 500 to 1000 nM
CCc1cc(NC(=O)NS(=O)(=O)N(CCN(C)C)c2cnn(C(C)C)c2)c(CC)o1 [Compound 64, 3-(2,5-Diethylfuran-3-yl)-1-{[2-(dimethylamino)ethyl][1-(propan-2-yl)-1H-pyrazol-4-yl]sulfamoyl}urea] | 10000 to 20000 nM | 1000 to 5000 nM
CCc1cc(NC(=O)NS(=O)(=O)N(c2cnn(C)c2)C2CCOCC2)c(CC)o1 [Compound 65, 3-(2,5-Diethylfuran-3-yl)-1-[(1-methyl-1H-pyrazol-4-yl)(oxan-4-yl)sulfamoyl]-urea] | > 20000 nM | 1000 to 5000 nM
Cc1cc(NC(=O)NS(=O)(=O)N(c2cnn(C)c2)[C@@H]2CCCN(C)C2)c(C(C)C)s1 [Compound 66, 1-[(1-Methyl-1H-pyrazol-4-yl)[(3R)-1-methylpiperidin-3-yl]sulfamoyl]-3-[5-methyl-2-(propan-2-yl)thiophen-3-yl]urea] | < 1000 nM | < 100 nM
Cc1c(C(C)C)sc(C(C)C)c1NC(=O)NS(=O)(=O)N(c1cnn(C)c1)[C@@H]1CCCN(C)C1 [Compound 67, 1-[(1-Methyl-1H-pyrazol-4-yl)[(3R)-1-methylpiperidin-3-yl]sulfamoyl]-3-[4-methyl-2,5-bis(propan-2-yl)thiophen-3-yl]urea] | < 1000 nM | 100 to 500 nM
CCc1cc(NC(=O)NS(=O)(=O)N(C2CCOC2)C2CCCN(C)C2)c(CC)s1 (centres unmarked) [Compound 69, 3-(2,5-Diethylthiophen-3-yl)-1-[(1-methylpiperidin-3-yl)(oxolan-3-yl)-sulfamoyl]urea] | > 20000 nM | > 10000 nM
CC(C)c1sc2c(c1NC(=O)NS(=O)(=O)N(c1cnn(C)c1)[C@@H]1CCCN(C)C1)CCC2 [Compound 70, 1-[(1-Methyl-1H-pyrazol-4-yl)[(3R)-1-methylpiperidin-3-yl]sulfamoyl]-3-[2-(propan-2-yl)-4H,5H,6H-cyclopenta[b]thiophen-3-yl]urea] | < 1000 nM | 100 to 500 nM
CCc1cc(NC(=O)NS(=O)(=O)N(c2cnn(C(C)C)c2)[C@@H]2CCCN(C)C2)c(CC)o1 [Compound 71, 3-(2,5-Diethylfuran-3-yl)-1-{[(3R)-1-methylpiperidin-3-yl][1-(propan-2-yl)-1H-pyrazol-4-yl]sulfamoyl}urea] | 1000 to 3000 nM | 100 to 500 nM
CC(C)c1cc(NC(=O)NS(=O)(=O)N(c2cnn(C)c2)C2CCCN(C)C2)c(C(C)C)o1 (centres unmarked) [Compound 73, 3-[2,5-Bis(propan-2-yl)furan-3-yl]-1-[(1-methyl-1H-pyrazol-4-yl)(1-methylpiperidin-3-yl)sulfamoyl]urea] | < 1000 nM | < 100 nM
CC(C)c1cc(NC(=O)NS(=O)(=O)N(CCN(C)C)c2cnn(C)c2)c(C(C)C)o1 [Compound 75, 3-[2,5-Bis(propan-2-yl)furan-3-yl]-1-{[2-(dimethylamino)ethyl](1-methyl-1H-pyrazol-4-yl)sulfamoyl}urea] | 3000 to 10000 nM | 100 to 500 nM
CC(C)c1cc(NC(=O)NS(=O)(=O)N(c2cnn(C)c2)[C@@H]2C[C@H](F)CN(C)C2)c(C(C)C)s1 [Compound 76, 3-[2,5-Bis(propan-2-yl)thiophen-3-yl]-1-{[(3R,5S)-5-fluoro-1-methylpiperidin-3-yl](1-methyl-1H-pyrazol-4-yl)sulfamoyl}urea] | 3000 to 10000 nM | 100 to 500 nM
